These are literature values, as cited in publication PMC10464202, “Discovery of novel JAK1 inhibitors through combining machine learning, structure-based pharmacophore modeling and bio-evaluation” (Journal of Translational Medicine, 2023).

The target in this data set is JAK1 (Homo sapiens, UniProt P23458). As to conditions: JAK1 inhibitors obtained by literature search; read-out: IC50 of training set (Hiphop).
Chain of JAK1 (P23458 whole entry): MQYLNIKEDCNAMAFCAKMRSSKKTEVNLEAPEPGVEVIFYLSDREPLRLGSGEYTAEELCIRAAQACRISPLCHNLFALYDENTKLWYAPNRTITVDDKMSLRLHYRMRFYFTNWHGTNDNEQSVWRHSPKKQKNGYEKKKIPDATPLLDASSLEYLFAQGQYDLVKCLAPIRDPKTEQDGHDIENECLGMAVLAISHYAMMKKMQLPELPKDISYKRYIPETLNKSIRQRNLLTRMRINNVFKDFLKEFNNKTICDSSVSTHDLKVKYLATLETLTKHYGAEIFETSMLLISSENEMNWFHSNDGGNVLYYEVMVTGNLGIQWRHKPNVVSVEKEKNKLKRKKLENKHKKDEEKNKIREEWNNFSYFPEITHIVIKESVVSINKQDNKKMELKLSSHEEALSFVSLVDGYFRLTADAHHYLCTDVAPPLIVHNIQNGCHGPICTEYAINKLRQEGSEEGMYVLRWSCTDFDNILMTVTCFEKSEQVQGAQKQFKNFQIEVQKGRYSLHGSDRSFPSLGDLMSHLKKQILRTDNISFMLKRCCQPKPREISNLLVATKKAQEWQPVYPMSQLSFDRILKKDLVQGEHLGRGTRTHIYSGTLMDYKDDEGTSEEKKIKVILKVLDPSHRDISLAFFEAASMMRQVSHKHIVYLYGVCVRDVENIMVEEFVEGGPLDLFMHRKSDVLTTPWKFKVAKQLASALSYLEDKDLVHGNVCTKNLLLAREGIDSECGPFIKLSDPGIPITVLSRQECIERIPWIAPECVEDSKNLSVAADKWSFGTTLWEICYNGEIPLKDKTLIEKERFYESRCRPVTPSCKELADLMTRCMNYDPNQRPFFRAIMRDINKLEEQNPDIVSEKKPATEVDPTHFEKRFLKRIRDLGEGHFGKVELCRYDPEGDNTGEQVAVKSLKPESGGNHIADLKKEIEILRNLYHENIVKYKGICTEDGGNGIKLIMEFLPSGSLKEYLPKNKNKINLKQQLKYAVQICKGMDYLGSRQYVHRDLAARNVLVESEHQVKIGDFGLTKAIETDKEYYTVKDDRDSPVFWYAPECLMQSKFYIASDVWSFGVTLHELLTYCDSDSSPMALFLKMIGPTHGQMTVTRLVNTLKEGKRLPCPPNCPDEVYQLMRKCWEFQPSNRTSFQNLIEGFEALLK

As for `Cc1ccc(C(=O)Nc2cccc3c(-c4nc(Nc5cnn(C)c5)ncc4C)c[nH]c23)c(C)n1` [Compound 5], the IC50 was 4 nM.
